From publication PMC8962251 (Biomedicines, 2022)
Bridges are numbered along the chain shown (N, C = ends). Roman numbers before positions name the chains, in order. [ ]: non-standard residue; d: D form. GABA = NCCCC(=O)O

What was measured:
[1] = target: SARS-CoV-2 S1S2 spike interaction with hACE2 (Severe acute respiratory syndrome coronavirus 2, UniProt P0DTC2); assay type: binding, SARS-CoV-2; human
SARS-CoV-2 S1S2 monomer = SARS-CoV-2 S1S2 monomer (Severe acute respiratory syndrome coronavirus 2, UniProt P0DTC2); assay type: binding
SARS-CoV-2 S1S2 trimer = SARS-CoV-2 S1S2 trimer (Severe acute respiratory syndrome coronavirus 2, UniProt P0DTC2); assay type: binding
SARS-CoV-2 RBD = SARS-CoV-2 RBD (Severe acute respiratory syndrome coronavirus 2, UniProt P0DTC2); assay type: binding
[2] = system: pre-formed complex of SARS-CoV-2 S1S2 monomer and hACE2; assay type: binding, SARS-CoV-2; human

Row | Compound | saturation level of the inhibitory effect (% of S1S2 binding level without compound) [1] | steady-state reduction of S1S2 binding signal to hACE2 [1] | % of theor. Rmax (SARS-CoV-2 S1S2 monomer) [%] | complex stability increase compared with CVRBDL-3 (factor) (SARS-CoV-2 S1S2 monomer) | % of theor. Rmax (SARS-CoV-2 S1S2 trimer) [%] | complex stability increase compared with CVRBDL-3 (factor) (SARS-CoV-2 S1S2 trimer) | % of theor. Rmax (SARS-CoV-2 RBD) [%] | complex stability increase compared with CVRBDL-3 (factor) (SARS-CoV-2 RBD) | increase of inhibition efficiency compared with CVRBDL-3 (factor) [1] | maximum displacement compared with CVRBDL-3 (factor) [2] | DC50 ([2]; read-out: DC50 (compound concentration where 50% of the maximum displacement is reached)) [nM]
1 | C[C@@H](O)[C@H](NC(=O)[C@H](Cc1c[nH]c2ccccc12)NC(=O)[C@@H](NC(=O)[C@H](CC(=O)O)NC(=O)[C@H](CC(N)=O)NC(=O)[C@H](CCCCN)NC(=O)[C@H](CCCCN)NC(=O)[C@H](CC(=O)O)NC(=O)[C@H](Cc1ccc(O)cc1)NC(=O)[C@H](CCC(=O)O)NC(=O)[C@H](Cc1c[nH]c2ccccc12)NC(=O)[C@H](Cc1c[nH]c2ccccc12)NC(=O)[C@H](Cc1ccccc1)NC(=O)[C@H](CC(=O)O)NC(=O)[C@@H](N)Cc1c[nH]cn1)[C@@H](C)O)C(=O)N[C@@H](CCCNC(=N)N)C(=O)N[C@@H](CCCNC(=N)N)C(=O)N[C@@H](CCCNC(=N)N)C(=O)N[C@@H](CCCNC(=N)N)C(N)=O [CVRBDL-3] | ~ 58% | ~ 33% | – | – | – | – | – | – | – | – | –
2 | I: H-HDFWWEYDKKNDTWTR[GABA]R[GABA]RK-NH2 / II: H-HDFWWEYDKKNDTWTR[GABA]R[GABA]R (amide I:21-II:C) [CVRBDL-3_3] | – | – | 104 | ~ 2.5 | 76 | ~ 2.5 | 65 | ~ 2 | ~ 11 | 1.6 | 417
